Results published in ChEMBL document CHEMBL4507263, “Data for DCP probe BAY-474” (2021).

Tests used:
[1] = molecular target: Serine/threonine-protein kinase WNK3 (Homo sapiens) (UniProt Q9BYP7); details: Compound concentration 1000.0 nM
[2] = molecular target: Cyclin-dependent kinase 9 (Homo sapiens) (UniProt P50750); details: Compound concentration 1000.0 nM
[3] = molecular target: SRSF protein kinase 3 (Homo sapiens) (UniProt Q9UPE1); details: Compound concentration 1000.0 nM
[4] = molecular target: 5'-AMP-activated protein kinase catalytic subunit alpha-1 (Homo sapiens) (UniProt Q13131); details: Compound concentration 1000.0 nM
[5] = molecular target: Platelet-derived growth factor receptor alpha (Homo sapiens) (UniProt P16234); details: Compound concentration 1000.0 nM
[6] = molecular target: Casein kinase I isoform delta (Homo sapiens) (UniProt P48730); details: Compound concentration 1000.0 nM
[7] = molecular target: Casein kinase I isoform epsilon (Homo sapiens) (UniProt P49674); details: Compound concentration 1000.0 nM
[8] = molecular target: 3-phosphoinositide-dependent protein kinase 1 (Homo sapiens) (UniProt O15530); details: Compound concentration 1000.0 nM
[9] = molecular target: Insulin-like growth factor 1 receptor (Homo sapiens) (UniProt P08069); details: Compound concentration 1000.0 nM
[10] = molecular target: Cyclin-dependent kinase 4 (Homo sapiens) (UniProt P11802); details: Compound concentration 1000.0 nM
[11] = molecular target: Non-receptor tyrosine-protein kinase TYK2 (Homo sapiens) (UniProt P29597); details: Compound concentration 1000.0 nM
[12] = molecular target: Ribosomal protein S6 kinase alpha-2 (Homo sapiens) (UniProt Q15349); details: Compound concentration 1000.0 nM
[13] = molecular target: Serine/threonine-protein kinase TBK1 (Homo sapiens) (UniProt Q9UHD2); details: Compound concentration 1000.0 nM
[14] = molecular target: NUAK family SNF1-like kinase 1 (Homo sapiens) (UniProt O60285); details: Compound concentration 1000.0 nM
[15] = molecular target: Leucine-rich repeat serine/threonine-protein kinase 2 (Homo sapiens) (UniProt Q5S007); details: Compound concentration 1000.0 nM
[16] = molecular target: Protein-tyrosine kinase 2-beta (Homo sapiens) (UniProt Q14289); details: Compound concentration 1000.0 nM
[17] = molecular target: Casein kinase I isoform alpha-like (Homo sapiens) (UniProt Q8N752); details: Compound concentration 1000.0 nM
[18] = molecular target: Hepatocyte growth factor receptor (Homo sapiens, UniProt P08581); details: Compound concentration 1000.0 nM
[19] = molecular target: Dual serine/threonine and tyrosine protein kinase (Homo sapiens) (UniProt Q6XUX3); details: Compound concentration 1000.0 nM
[20] = molecular target: Phosphatidylinositol 5-phosphate 4-kinase type-2 gamma (Homo sapiens) (UniProt Q8TBX8); details: Compound concentration 1000.0 nM
[21] = molecular target: Mitogen-activated protein kinase 6 (Homo sapiens) (UniProt Q16659); details: Compound concentration 1000.0 nM
[22] = molecular target: Dual specificity mitogen-activated protein kinase kinase 7 (Homo sapiens) (UniProt O14733); details: Compound concentration 1000.0 nM
[23] = molecular target: Cyclin-dependent kinase 2 homolog (Plasmodium falciparum (isolate 3D7)) (UniProt P61075); details: Compound concentration 1000.0 nM
[24] = molecular target: Calcium/calmodulin-dependent protein kinase type II subunit alpha (Homo sapiens) (UniProt Q9UQM7); details: Compound concentration 1000.0 nM
[25] = molecular target: Mitogen-activated protein kinase kinase kinase 10 (Homo sapiens) (UniProt Q02779); details: Compound concentration 1000.0 nM
[26] = molecular target: T1, D(4) dopamine receptor (Homo sapiens) (UniProt P21917); assay: Inhibition of Dopamine D4.2 at 10 µM in the Eurofins-Panlabs radioligand binding assay (Eurofins_assay_219900); set-up: ligand concentration 0.5 nM; details: Compound concentration 10.0 uM
T1 sequence (whole entry): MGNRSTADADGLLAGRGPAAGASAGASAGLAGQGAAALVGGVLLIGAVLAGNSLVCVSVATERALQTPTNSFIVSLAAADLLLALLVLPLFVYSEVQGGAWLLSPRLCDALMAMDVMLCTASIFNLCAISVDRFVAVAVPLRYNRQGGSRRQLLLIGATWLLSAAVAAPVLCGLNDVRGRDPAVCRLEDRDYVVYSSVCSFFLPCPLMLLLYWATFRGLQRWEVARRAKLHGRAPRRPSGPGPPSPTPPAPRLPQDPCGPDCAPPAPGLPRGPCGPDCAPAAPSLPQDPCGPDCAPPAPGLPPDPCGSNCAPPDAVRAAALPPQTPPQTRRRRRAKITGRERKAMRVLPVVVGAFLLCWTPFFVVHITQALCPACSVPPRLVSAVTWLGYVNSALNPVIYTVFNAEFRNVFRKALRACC

[27] = molecular target: Serine/threonine-protein kinase N2 (Homo sapiens) (UniProt Q16513); assay: PRK2 (h) Millipore kinase activity assay; details: Compound concentration 1.0 uM
[28] = molecular target: Glycogen synthase kinase-3 alpha (Homo sapiens) (UniProt P49840); assay: GSK3alpha (h) Millipore kinase activity assay; details: Compound concentration 1.0 uM
[29] = molecular target: Serine/threonine-protein kinase TAO1 (Homo sapiens) (UniProt Q7L7X3); assay: TAO1 (h) Millipore kinase activity assay; details: Compound concentration 1.0 uM
[30] = molecular target: Proto-oncogene tyrosine-protein kinase Src (Homo sapiens) (UniProt P12931); assay: cSRC (h) Millipore kinase activity assay; details: Compound concentration 1.0 uM
[31] = molecular target: Mu-type opioid receptor (Homo sapiens) (UniProt P35372); details: Compound concentration 10.0 uM
[32] = molecular target: SRSF protein kinase 1 (Homo sapiens) (UniProt Q96SB4); assay: SRPK1 (h) Millipore kinase activity assay; details: Compound concentration 1.0 uM
[33] = molecular target: Cyclin-dependent kinase 2/cyclin E (Homo sapiens) (UniProt P24864+P24941+O96020); assay: CDK2/cyclinE (h) Millipore kinase activity assay; type: protein-complex assay; details: Compound concentration 1.0 uM
[34] = molecular target: Vascular endothelial growth factor receptor 1 (Homo sapiens) (UniProt P17948); assay: Flt1 (h) Millipore kinase activity assay; details: Compound concentration 1.0 uM
[35] = molecular target: Ribosomal protein S6 kinase beta-1 (Homo sapiens) (UniProt P23443); assay: p70S6K (h) Millipore kinase activity assay; details: Compound concentration 1.0 uM
[36] = molecular target: Tyrosine-protein kinase SYK (Homo sapiens) (UniProt P43405); assay: Syk (h) Millipore kinase activity assay; details: Compound concentration 1.0 uM
[37] = molecular target: RAC-beta serine/threonine-protein kinase (Homo sapiens) (UniProt P31751); assay: PKBbeta (h) Millipore kinase activity assay; details: Compound concentration 1.0 uM
[38] = molecular target: CDK7/Cyclin H/MNAT1 (Homo sapiens) (UniProt P51946+P50613+P51948); assay: CDK7/cyclinH/MAT1 (h) Millipore kinase activity assay; type: protein-complex assay; details: Compound concentration 1.0 uM
[39] = molecular target: Ephrin type-B receptor 3 (Homo sapiens) (UniProt P54753); assay: EphB3 (h) Millipore kinase activity assay; details: Compound concentration 1.0 uM
[40] = molecular target: Focal adhesion kinase 1 (Homo sapiens) (UniProt Q05397); assay: FAK (h) Millipore kinase activity assay; details: Compound concentration 1.0 uM
Focal adhesion kinase 1 (Homo sapiens), sequence (Q05397 2-1052 limits assumed): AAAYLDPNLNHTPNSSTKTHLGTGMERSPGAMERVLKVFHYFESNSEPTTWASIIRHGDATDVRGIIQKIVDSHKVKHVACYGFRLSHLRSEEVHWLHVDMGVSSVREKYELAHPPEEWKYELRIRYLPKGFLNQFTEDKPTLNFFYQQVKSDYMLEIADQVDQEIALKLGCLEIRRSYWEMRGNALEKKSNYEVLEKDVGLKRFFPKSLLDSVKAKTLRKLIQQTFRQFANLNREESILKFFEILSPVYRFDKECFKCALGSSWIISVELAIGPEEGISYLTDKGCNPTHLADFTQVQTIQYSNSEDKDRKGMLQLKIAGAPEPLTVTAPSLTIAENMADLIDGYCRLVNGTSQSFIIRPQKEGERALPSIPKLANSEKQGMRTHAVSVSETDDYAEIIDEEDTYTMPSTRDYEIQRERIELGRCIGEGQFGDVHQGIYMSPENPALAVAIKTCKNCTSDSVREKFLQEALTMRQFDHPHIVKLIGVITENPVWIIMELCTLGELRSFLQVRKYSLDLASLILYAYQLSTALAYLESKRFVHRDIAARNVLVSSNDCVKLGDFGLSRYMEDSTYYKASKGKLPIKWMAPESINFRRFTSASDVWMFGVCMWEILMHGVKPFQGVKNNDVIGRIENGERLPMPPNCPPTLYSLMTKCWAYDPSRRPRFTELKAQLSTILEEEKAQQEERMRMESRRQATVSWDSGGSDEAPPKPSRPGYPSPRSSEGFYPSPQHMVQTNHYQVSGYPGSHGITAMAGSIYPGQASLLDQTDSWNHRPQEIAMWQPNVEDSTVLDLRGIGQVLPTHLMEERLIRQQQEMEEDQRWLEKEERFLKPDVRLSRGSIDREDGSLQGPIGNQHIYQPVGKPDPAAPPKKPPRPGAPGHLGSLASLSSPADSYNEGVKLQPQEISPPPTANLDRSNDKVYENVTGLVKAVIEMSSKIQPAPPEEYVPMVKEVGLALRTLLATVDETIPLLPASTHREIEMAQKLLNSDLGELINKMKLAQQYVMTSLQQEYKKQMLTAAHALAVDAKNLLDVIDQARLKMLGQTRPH

Serine/threonine-protein kinase N2 (Homo sapiens), sequence (Q16513 whole entry, looked up): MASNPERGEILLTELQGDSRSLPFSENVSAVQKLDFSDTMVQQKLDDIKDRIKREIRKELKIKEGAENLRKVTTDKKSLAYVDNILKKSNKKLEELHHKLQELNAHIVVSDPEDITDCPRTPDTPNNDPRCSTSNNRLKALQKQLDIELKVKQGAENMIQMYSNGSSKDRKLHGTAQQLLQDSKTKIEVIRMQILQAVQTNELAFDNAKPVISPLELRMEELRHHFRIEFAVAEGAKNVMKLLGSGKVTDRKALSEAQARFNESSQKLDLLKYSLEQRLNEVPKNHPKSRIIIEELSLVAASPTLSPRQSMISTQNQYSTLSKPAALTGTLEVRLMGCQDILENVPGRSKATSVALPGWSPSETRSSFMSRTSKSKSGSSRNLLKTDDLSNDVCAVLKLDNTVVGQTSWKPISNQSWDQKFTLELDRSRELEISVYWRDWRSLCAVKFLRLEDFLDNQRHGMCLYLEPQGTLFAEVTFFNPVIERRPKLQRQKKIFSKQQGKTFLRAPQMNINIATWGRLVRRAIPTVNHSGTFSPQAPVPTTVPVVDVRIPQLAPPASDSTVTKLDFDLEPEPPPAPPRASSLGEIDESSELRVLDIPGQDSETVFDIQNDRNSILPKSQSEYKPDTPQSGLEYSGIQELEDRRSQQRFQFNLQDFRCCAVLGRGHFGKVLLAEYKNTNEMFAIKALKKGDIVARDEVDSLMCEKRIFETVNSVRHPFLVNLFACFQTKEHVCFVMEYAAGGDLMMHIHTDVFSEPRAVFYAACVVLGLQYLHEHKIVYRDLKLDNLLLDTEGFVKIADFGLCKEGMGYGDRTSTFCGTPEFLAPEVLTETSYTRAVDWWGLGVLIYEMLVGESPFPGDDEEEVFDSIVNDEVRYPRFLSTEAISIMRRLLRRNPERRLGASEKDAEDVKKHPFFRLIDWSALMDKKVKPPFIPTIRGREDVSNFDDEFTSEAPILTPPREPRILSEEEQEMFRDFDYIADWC
Ephrin type-B receptor 3 (Homo sapiens), sequence (P54753 whole entry): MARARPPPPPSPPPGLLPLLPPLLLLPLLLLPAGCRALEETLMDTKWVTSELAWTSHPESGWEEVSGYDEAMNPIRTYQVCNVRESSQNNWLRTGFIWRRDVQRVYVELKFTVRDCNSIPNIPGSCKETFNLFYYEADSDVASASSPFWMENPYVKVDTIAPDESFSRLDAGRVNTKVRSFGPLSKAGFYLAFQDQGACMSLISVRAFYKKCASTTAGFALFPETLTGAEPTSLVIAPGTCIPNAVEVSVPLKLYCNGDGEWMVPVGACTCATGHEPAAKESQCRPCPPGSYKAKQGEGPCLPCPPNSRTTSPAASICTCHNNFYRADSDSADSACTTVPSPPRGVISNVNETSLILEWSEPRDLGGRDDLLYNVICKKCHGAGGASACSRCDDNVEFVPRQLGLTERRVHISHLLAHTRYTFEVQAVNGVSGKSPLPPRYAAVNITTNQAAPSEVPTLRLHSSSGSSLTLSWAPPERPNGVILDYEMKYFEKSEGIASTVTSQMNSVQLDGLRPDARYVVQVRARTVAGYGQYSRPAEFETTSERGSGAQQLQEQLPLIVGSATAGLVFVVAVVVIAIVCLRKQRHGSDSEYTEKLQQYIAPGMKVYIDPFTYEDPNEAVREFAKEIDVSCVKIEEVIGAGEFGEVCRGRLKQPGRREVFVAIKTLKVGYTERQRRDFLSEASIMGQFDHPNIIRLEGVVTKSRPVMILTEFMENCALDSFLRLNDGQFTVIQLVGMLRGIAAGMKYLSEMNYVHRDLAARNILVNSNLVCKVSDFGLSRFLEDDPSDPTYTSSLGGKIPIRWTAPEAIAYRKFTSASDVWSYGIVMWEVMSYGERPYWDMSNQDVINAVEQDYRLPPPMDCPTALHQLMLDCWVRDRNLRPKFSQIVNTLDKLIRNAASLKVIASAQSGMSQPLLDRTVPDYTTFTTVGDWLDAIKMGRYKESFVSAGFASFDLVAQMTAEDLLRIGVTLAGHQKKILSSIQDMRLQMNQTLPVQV
5'-AMP-activated protein kinase catalytic subunit alpha-1 (Homo sapiens), sequence (Q13131 whole entry, looked up): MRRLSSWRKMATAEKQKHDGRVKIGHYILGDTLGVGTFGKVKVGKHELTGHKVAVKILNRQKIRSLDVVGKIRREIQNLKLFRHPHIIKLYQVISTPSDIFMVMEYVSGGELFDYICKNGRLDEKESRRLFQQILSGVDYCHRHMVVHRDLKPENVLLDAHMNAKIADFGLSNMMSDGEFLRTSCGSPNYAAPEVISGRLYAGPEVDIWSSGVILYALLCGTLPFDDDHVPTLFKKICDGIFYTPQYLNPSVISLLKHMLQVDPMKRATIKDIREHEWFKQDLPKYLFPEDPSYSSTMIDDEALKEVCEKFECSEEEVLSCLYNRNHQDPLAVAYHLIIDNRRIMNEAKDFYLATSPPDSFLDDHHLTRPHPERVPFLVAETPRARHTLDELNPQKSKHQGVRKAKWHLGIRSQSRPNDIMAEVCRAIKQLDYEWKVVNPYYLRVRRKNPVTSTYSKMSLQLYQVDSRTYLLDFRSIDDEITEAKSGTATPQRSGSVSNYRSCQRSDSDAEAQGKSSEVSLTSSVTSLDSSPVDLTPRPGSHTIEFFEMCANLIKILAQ
Dual specificity mitogen-activated protein kinase kinase 7 (Homo sapiens), sequence (O14733 whole entry): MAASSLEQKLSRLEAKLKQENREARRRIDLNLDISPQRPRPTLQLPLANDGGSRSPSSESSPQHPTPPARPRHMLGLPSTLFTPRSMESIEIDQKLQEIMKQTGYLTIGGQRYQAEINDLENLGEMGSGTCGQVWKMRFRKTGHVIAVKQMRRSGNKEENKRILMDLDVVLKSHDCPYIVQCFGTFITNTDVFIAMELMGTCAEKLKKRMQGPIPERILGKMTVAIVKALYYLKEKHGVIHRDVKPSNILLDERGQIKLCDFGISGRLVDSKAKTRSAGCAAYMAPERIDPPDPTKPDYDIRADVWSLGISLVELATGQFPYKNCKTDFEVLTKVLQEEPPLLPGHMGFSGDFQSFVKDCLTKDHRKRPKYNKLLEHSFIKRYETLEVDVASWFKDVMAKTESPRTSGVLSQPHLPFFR
Calcium/calmodulin-dependent protein kinase type II subunit alpha (Homo sapiens), sequence (Q9UQM7 whole entry): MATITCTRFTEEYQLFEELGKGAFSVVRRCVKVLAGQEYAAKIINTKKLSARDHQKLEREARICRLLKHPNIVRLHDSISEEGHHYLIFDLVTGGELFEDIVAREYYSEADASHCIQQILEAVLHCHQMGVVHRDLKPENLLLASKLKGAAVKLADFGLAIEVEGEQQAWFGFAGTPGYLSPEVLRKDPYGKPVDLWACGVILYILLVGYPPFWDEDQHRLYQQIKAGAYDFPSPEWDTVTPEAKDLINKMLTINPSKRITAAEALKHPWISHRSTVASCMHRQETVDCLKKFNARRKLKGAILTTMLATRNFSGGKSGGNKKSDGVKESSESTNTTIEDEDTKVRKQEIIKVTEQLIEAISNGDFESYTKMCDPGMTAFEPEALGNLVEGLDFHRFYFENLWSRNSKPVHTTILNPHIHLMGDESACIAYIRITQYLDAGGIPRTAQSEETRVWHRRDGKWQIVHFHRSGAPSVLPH
Cyclin-dependent kinase 2 homolog (Plasmodium falciparum (isolate 3D7)), sequence (P61075 whole entry): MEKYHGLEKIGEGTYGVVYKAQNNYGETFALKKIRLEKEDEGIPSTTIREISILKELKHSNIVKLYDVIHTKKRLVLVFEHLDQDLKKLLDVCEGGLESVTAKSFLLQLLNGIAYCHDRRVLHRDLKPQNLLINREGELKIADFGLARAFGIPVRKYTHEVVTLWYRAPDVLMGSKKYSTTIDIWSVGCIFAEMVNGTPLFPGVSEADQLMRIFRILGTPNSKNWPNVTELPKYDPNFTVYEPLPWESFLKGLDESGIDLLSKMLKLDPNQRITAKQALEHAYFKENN

Work on CC1=C(C#N)[C@@H](c2ccc3[nH]nc(C)c3c2)C(C#N)=C(c2ccc(Cl)cc2)N1 [BAY-827] yielded a residual activity [1] of 100%, a residual activity [2] of 96.9% and a residual activity [3] of 100%. The residual activity [4] was 100%, the residual activity [5] was 100% and the residual activity [6] was 100%. For the same compound, the residual activity [7] was 91.7%, the residual activity [8] was 98.2% and the residual activity [9] was 100%. For the same compound, the residual activity [10] was 100%, the residual activity [11] was 73.1% and the residual activity [12] was 100%. It also gave a residual activity [13] of 58.7%, a residual activity [14] of 100% and a residual activity [15] of 91.7%. The residual activity [16] was 100%, the residual activity [17] was 100% and the residual activity [18] was 17.2%. The residual activity [19] was 100%, the residual activity [20] was 100% and the residual activity [21] was 100%. The residual activity [22] was 92.2%, the residual activity [23] was 92.5% and the residual activity [24] was 100%. The residual activity [25] was 100%.
CC1=C(C#N)C(c2ccc3[nH]nc(C)c3c2)C(C#N)=C(C)N1 [BAY-474] showed an inhibition [26] of -2%, an inhibition [27] of 9% and an inhibition [28] of -3%. The inhibition [29] was -6%, the inhibition [30] was 8% and the inhibition [31] was -9%. The inhibition [32] was 11%, the inhibition [33] was 9% and the inhibition [34] was 69%. For the same compound, the inhibition [35] was -3%, the inhibition [36] was 8% and the inhibition [37] was -5%. It also gave an inhibition [38] of -1%, an inhibition [39] of -5% and an inhibition [40] of 11%.
